Source: PubChem BioAssay (NCI)
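All cell lines were grown in 96-well plates and treated with compound for 48 hours. The concentration for 50% growth inhibition is given as GI50. TGI is the concentration that stops growth completely.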

Legend:
Experiment in all cases: NCI tumour cell line growth inhibition, 48 h
HCT-116 colon = system: HCT-116 colon
SNB-19 CNS = system: SNB-19 CNS
DU-145 prostate = system: DU-145 prostate
A498 renal = system: A498 renal
HOP-62 NSCLC = system: HOP-62 NSCLC
SK-MEL-2 melanoma = system: SK-MEL-2 melanoma
PC-3 prostate = system: PC-3 prostate
SR leukemia = system: SR leukemia
BT-549 breast = system: BT-549 breast
HS 578T breast = system: HS 578T breast
SK-OV-3 ovarian = system: SK-OV-3 ovarian
K-562 leukemia = system: K-562 leukemia
CCRF-CEM leukemia = system: CCRF-CEM leukemia
ACHN renal = system: ACHN renal
786-0 renal = system: 786-0 renal
U251 CNS = system: U251 CNS
RPMI-8226 leukemia = system: RPMI-8226 leukemia
SF-295 CNS = system: SF-295 CNS
SNB-75 CNS = system: SNB-75 CNS
OVCAR-8 ovarian = system: OVCAR-8 ovarian
OVCAR-5 ovarian = system: OVCAR-5 ovarian
HL-60(TB) leukemia = system: HL-60(TB) leukemia
HCC-2998 colon = system: HCC-2998 colon
NCI-H522 lung = system: NCI-H522 lung
TK-10 renal = system: TK-10 renal
COLO 205 colon = system: COLO 205 colon
CAKI-1 renal = system: CAKI-1 renal
MOLT-4 leukemia = system: MOLT-4 leukemia
IGROV1 ovarian = system: IGROV1 ovarian
EKVX NSCLC = system: EKVX NSCLC
A549 NSCLC = system: A549 NSCLC
HCT-15 colon = system: HCT-15 colon
RXF 393 renal = system: RXF 393 renal
HT29 colon = system: HT29 colon
KM12 colon = system: KM12 colon
UACC-62 melanoma = system: UACC-62 melanoma
MCF7 breast = system: MCF7 breast
NCI-H226 lung = system: NCI-H226 lung
SF-268 CNS = system: SF-268 CNS
NCI-H23 lung = system: NCI-H23 lung
SK-MEL-28 melanoma = system: SK-MEL-28 melanoma
NCI-H460 lung = system: NCI-H460 lung
SF-539 CNS = system: SF-539 CNS
UO-31 renal = system: UO-31 renal
MALME-3M melanoma = system: MALME-3M melanoma
SN12C renal = system: SN12C renal
HOP-92 NSCLC = system: HOP-92 NSCLC
OVCAR-4 ovarian = system: OVCAR-4 ovarian
LOX IMVI melanoma = system: LOX IMVI melanoma
MDA-MB-435 = system: MDA-MB-435
SK-MEL-5 melanoma = system: SK-MEL-5 melanoma
M14 melanoma = system: M14 melanoma
UACC-257 melanoma = system: UACC-257 melanoma
SW-620 colon = system: SW-620 colon
NCI/ADR-RES ovarian = system: NCI/ADR-RES ovarian
MDA-MB-231 breast = system: MDA-MB-231 breast

Work on NC(=O)c1c(NC(=O)c2cccc(C(F)(F)F)c2F)sc2c1CCC(=O)C2 yielded a GI50 (HCT-116 colon) of 306 nM, a TGI (HCT-116 colon) of over 100000 nM and a GI50 (SNB-19 CNS) of 577 nM. It also gave a TGI (SNB-19 CNS) of over 100000 nM, a GI50 (DU-145 prostate) of over 100000 nM and a TGI (DU-145 prostate) of over 100000 nM. It also gave a GI50 (A498 renal) of over 100000 nM, a TGI (A498 renal) of over 100000 nM and a GI50 (HOP-62 NSCLC) of 6690 nM. For the same compound, the TGI (HOP-62 NSCLC) was over 100000 nM, the GI50 (SK-MEL-2 melanoma) was over 100000 nM and the TGI (SK-MEL-2 melanoma) was over 100000 nM. It also gave a GI50 (PC-3 prostate) of 270 nM, a TGI (PC-3 prostate) of over 100000 nM and a GI50 (SR leukemia) of 326 nM. The TGI (SR leukemia) was over 100000 nM, the GI50 (BT-549 breast) was 327 nM and the TGI (BT-549 breast) was over 100000 nM. It also gave a GI50 (HS 578T breast) of 831 nM, a TGI (HS 578T breast) of over 100000 nM and a GI50 (SK-OV-3 ovarian) of over 100000 nM. The TGI (SK-OV-3 ovarian) was over 100000 nM, the GI50 (K-562 leukemia) was 231 nM and the TGI (K-562 leukemia) was over 100000 nM. It also gave a GI50 (CCRF-CEM leukemia) of 212 nM, a TGI (CCRF-CEM leukemia) of over 100000 nM and a GI50 (ACHN renal) of 337 nM. The TGI (ACHN renal) was over 100000 nM, the GI50 (786-0 renal) was 2200 nM and the TGI (786-0 renal) was over 100000 nM. The GI50 (U251 CNS) was 315 nM, the TGI (U251 CNS) was over 100000 nM and the GI50 (RPMI-8226 leukemia) was 231 nM. The GI50 (SF-295 CNS) was 3090 nM, the TGI (SF-295 CNS) was over 100000 nM and the GI50 (SNB-75 CNS) was 2160 nM. The TGI (SNB-75 CNS) was 39100 nM.

CCCCCc1ccc(S(=O)(=O)Nc2cccc(-c3csc(NCCN4CCN(C)CC4)n3)c2)cc1 gave a GI50 (OVCAR-8 ovarian) of 1840 nM, a TGI (OVCAR-8 ovarian) of 3500 nM and a GI50 (OVCAR-5 ovarian) of 1890 nM. The TGI (OVCAR-5 ovarian) was 4010 nM, the GI50 (HL-60(TB) leukemia) was 2310 nM and the TGI (HL-60(TB) leukemia) was 5340 nM. For the same compound, the GI50 (SNB-19 CNS) was 1960 nM, the TGI (SNB-19 CNS) was 4050 nM and the GI50 (HCC-2998 colon) was 1750 nM. For the same compound, the TGI (HCC-2998 colon) was 3240 nM, the GI50 (NCI-H522 lung) was 1800 nM and the TGI (NCI-H522 lung) was 3430 nM. The GI50 (DU-145 prostate) was 1960 nM, the TGI (DU-145 prostate) was 3920 nM and the GI50 (A498 renal) was 1530 nM. It also gave a TGI (A498 renal) of 3120 nM, a GI50 (TK-10 renal) of 1800 nM and a TGI (TK-10 renal) of 3610 nM. The GI50 (COLO 205 colon) was 1640 nM, the TGI (COLO 205 colon) was 3160 nM and the GI50 (HOP-62 NSCLC) was 1730 nM. The TGI (HOP-62 NSCLC) was 3320 nM, the GI50 (CAKI-1 renal) was 1520 nM and the TGI (CAKI-1 renal) was 3190 nM. The GI50 (MOLT-4 leukemia) was 3360 nM, the TGI (MOLT-4 leukemia) was 14600 nM and the GI50 (IGROV1 ovarian) was 1630 nM. It also gave a TGI (IGROV1 ovarian) of 3180 nM, a GI50 (EKVX NSCLC) of 1670 nM and a TGI (EKVX NSCLC) of 3610 nM. The GI50 (A549 NSCLC) was 1720 nM, the TGI (A549 NSCLC) was 3300 nM and the GI50 (SK-MEL-2 melanoma) was 1760 nM. For the same compound, the TGI (SK-MEL-2 melanoma) was 3330 nM, the GI50 (HCT-15 colon) was 1680 nM and the TGI (HCT-15 colon) was 3310 nM. It also gave a GI50 (RXF 393 renal) of 1410 nM, a TGI (RXF 393 renal) of 2900 nM and a GI50 (HT29 colon) of 1900 nM. It also gave a TGI (HT29 colon) of 3710 nM, a GI50 (KM12 colon) of 1720 nM and a TGI (KM12 colon) of 3220 nM. The GI50 (PC-3 prostate) was 1860 nM, the TGI (PC-3 prostate) was 4420 nM and the GI50 (UACC-62 melanoma) was 1820 nM. The TGI (UACC-62 melanoma) was 3470 nM, the GI50 (MCF7 breast) was 1690 nM and the TGI (MCF7 breast) was 3330 nM. The GI50 (NCI-H226 lung) was 1850 nM, the TGI (NCI-H226 lung) was 3930 nM and the GI50 (SR leukemia) was 2470 nM. It also gave a TGI (SR leukemia) of over 100000 nM, a GI50 (SF-268 CNS) of 1760 nM and a TGI (SF-268 CNS) of 3630 nM. For the same compound, the GI50 (BT-549 breast) was 1560 nM, the TGI (BT-549 breast) was 2970 nM and the GI50 (HS 578T breast) was 1830 nM. The TGI (HS 578T breast) was 4220 nM, the GI50 (NCI-H23 lung) was 1810 nM and the TGI (NCI-H23 lung) was 3620 nM. For the same compound, the GI50 (SK-OV-3 ovarian) was 1750 nM, the TGI (SK-OV-3 ovarian) was 3350 nM and the GI50 (K-562 leukemia) was 3020 nM. It also gave a TGI (K-562 leukemia) of over 100000 nM, a GI50 (SK-MEL-28 melanoma) of 1870 nM and a TGI (SK-MEL-28 melanoma) of 3360 nM. The GI50 (NCI-H460 lung) was 1780 nM, the TGI (NCI-H460 lung) was 3290 nM and the GI50 (CCRF-CEM leukemia) was 2590 nM. It also gave a TGI (CCRF-CEM leukemia) of 9630 nM, a GI50 (ACHN renal) of 1750 nM and a TGI (ACHN renal) of 3240 nM. It also gave a GI50 (SF-539 CNS) of 1700 nM, a TGI (SF-539 CNS) of 3110 nM and a GI50 (UO-31 renal) of 1420 nM. It also gave a TGI (UO-31 renal) of 2940 nM, a GI50 (MALME-3M melanoma) of 1540 nM and a TGI (MALME-3M melanoma) of 2990 nM. The GI50 (SN12C renal) was 2010 nM, the TGI (SN12C renal) was 4480 nM and the GI50 (HOP-92 NSCLC) was 1280 nM. It also gave a TGI (HOP-92 NSCLC) of 2730 nM, a GI50 (OVCAR-4 ovarian) of 2020 nM and a TGI (OVCAR-4 ovarian) of 5180 nM. For the same compound, the GI50 (LOX IMVI melanoma) was 1690 nM, the TGI (LOX IMVI melanoma) was 3130 nM and the GI50 (MDA-MB-435) was 1700 nM. For the same compound, the TGI (MDA-MB-435) was 3300 nM, the GI50 (SK-MEL-5 melanoma) was 1780 nM and the TGI (SK-MEL-5 melanoma) was 3190 nM. For the same compound, the GI50 (M14 melanoma) was 1770 nM, the TGI (M14 melanoma) was 3420 nM and the GI50 (786-0 renal) was 1670 nM. For the same compound, the TGI (786-0 renal) was 3080 nM, the GI50 (U251 CNS) was 1700 nM and the TGI (U251 CNS) was 3230 nM. For the same compound, the GI50 (UACC-257 melanoma) was 1730 nM, the TGI (UACC-257 melanoma) was 3270 nM and the GI50 (SF-295 CNS) was 1860 nM. The TGI (SF-295 CNS) was 3540 nM, the GI50 (SW-620 colon) was 1660 nM and the TGI (SW-620 colon) was 3120 nM. The GI50 (NCI/ADR-RES ovarian) was 1840 nM, the TGI (NCI/ADR-RES ovarian) was 4250 nM and the GI50 (MDA-MB-231 breast) was 1630 nM. It also gave a TGI (MDA-MB-231 breast) of 3300 nM, a GI50 (SNB-75 CNS) of 1390 nM and a TGI (SNB-75 CNS) of 2890 nM.
